Assay results published in ChEMBL document CHEMBL1201862, “PubChem BioAssay data set” (2004).
Activity calls are given as the source filed them.

What was measured:
[1] = biological target: Genome polyprotein (dengue virus type 2, UniProt P29990); experiment: Dengue-2 NS5 methyltransferase inhibitors, primary screen, biochemical, confirmation dose response (AID 588689); format: functional
[2] = system: Vero; experiment: Vero cell cytotoxicity, cytotoxicity control for flavivirus capping enzyme inhibitors (AID 588742); format: functional; settings: Chlorocebus sabaeus
[3] = biological target: T1, Polyadenylate-binding protein 1 (Homo sapiens, UniProt P11940); experiment: PABP1 MLLE–PAM2 interaction inhibitors, dose response, miRNA deadenylation inhibitor project, biochemical, fluorescence polarization, Cy5-PAM2 peptide, secondary (AID 602260); format: functional; settings: read-out: IC50_Mean
T1 sequence (P11940 whole entry): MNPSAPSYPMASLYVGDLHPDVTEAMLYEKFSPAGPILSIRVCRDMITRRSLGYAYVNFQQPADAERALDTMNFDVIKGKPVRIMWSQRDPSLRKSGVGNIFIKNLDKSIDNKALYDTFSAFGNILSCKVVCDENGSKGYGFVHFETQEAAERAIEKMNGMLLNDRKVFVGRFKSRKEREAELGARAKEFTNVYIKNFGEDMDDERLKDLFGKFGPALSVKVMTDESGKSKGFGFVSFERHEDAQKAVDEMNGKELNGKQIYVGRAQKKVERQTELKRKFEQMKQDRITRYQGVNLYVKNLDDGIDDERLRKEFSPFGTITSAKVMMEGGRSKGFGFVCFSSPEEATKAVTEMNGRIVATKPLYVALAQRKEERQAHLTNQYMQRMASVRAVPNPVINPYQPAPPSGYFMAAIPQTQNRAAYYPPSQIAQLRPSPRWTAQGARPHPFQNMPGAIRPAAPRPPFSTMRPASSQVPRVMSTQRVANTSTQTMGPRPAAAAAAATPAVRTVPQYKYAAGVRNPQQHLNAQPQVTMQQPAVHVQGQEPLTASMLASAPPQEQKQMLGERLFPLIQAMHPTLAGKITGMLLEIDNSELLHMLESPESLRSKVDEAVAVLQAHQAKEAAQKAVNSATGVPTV

[4] = biological target: T2, Protein RecA (Mycobacterium tuberculosis, UniProt P9WHJ3); experiment: Fluorescence Cell-Free Homogeneous Dose Retest to Identify Inhibitors of RecA-Intein Splicing Activity. [Related pubchem assays (depositor defined):AID2097, AID2223, AID489010, AID492950]; format: functional
T2 sequence (P9WHJ3 whole entry): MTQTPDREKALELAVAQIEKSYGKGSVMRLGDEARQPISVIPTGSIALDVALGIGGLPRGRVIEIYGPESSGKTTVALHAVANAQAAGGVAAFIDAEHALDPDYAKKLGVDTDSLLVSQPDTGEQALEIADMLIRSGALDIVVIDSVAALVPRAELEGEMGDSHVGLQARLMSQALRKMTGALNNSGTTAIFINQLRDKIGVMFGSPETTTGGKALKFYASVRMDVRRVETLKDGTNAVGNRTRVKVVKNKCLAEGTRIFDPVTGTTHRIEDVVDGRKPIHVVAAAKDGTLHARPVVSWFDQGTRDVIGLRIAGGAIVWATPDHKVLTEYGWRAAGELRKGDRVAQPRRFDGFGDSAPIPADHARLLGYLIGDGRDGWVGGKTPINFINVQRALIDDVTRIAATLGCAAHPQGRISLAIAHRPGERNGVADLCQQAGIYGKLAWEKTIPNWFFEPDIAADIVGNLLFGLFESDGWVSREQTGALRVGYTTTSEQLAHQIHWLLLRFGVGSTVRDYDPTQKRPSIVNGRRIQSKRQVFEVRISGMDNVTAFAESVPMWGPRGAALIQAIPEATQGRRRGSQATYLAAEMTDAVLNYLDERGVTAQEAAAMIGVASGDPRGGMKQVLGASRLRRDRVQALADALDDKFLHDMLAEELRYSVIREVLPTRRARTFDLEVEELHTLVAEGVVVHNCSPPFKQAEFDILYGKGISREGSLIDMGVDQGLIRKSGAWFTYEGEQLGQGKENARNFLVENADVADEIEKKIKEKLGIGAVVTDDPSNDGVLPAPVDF

[5] = biological target: Induced myeloid leukemia cell differentiation protein Mcl-1 (Homo sapiens, UniProt Q07820); format: functional
Sequence of Induced myeloid leukemia cell differentiation protein Mcl-1 (Q07820 whole entry): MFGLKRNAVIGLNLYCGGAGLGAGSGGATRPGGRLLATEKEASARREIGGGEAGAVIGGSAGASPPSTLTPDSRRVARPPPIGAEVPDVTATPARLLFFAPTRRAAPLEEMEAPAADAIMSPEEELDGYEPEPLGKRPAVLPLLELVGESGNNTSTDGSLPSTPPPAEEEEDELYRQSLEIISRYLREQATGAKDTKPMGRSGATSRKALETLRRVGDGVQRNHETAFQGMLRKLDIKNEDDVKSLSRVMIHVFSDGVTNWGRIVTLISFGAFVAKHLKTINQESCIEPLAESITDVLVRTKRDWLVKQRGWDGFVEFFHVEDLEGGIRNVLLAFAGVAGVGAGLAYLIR

[6] = system: H4; experiment: Luminescence Cell-Based Dose Response HTS to Identify Activators of 5'UTR Stem-Loop Driven Prion Protein mRNA Translation in H4 Neuroglioblastoma Cells. [Related pubchem assays: 1829 (Project Summary), 1814 (Primary HTS)]; format: functional; settings: Homo sapiens
[7] = biological target: T1, Polyadenylate-binding protein 1; experiment: PABP1 MLLE–PAM2 binding inhibitor potency, dose response, biochemical, fluorescence polarization, FITC-PAM2 peptide (AID 602259); format: functional; settings: read-out: IC50_Mean
[8] = biological target: T3, Replicative DNA helicase DnaB (Mycobacterium tuberculosis, UniProt P9WMR3); experiment: DnaB intein splicing inhibitors, dose response, biochemical, cell-free fluorescence (AID 449749); format: functional
T3 sequence (P9WMR3 whole entry): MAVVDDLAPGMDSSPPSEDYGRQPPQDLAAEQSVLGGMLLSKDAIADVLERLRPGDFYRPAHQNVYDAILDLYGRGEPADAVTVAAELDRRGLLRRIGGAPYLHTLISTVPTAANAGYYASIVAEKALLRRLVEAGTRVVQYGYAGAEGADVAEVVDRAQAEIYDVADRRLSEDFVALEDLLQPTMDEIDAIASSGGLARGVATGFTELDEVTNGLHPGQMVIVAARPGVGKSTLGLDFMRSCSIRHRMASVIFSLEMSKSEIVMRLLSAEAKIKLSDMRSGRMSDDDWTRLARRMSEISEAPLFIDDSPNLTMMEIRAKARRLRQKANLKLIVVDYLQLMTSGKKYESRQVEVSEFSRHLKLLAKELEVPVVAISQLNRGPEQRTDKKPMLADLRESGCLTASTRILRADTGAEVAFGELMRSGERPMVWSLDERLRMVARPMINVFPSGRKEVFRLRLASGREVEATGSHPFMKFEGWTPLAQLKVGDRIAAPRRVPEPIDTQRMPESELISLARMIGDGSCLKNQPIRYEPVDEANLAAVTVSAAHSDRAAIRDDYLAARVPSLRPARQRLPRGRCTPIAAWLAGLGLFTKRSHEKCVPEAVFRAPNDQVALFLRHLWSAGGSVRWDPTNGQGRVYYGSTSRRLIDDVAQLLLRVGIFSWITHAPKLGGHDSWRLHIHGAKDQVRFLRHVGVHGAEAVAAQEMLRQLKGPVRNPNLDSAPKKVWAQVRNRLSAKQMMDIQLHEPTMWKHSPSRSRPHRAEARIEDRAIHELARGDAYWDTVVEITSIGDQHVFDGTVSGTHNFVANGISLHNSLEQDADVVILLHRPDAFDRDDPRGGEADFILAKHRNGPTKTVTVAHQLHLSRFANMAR

[9] = biological target: T4, Aminopeptidase N (Plasmodium falciparum FcB1/Columbia, UniProt O96935); experiment: P. falciparum M1AAP inhibitors, biochemical, fluorogenic H-Leu-NHMec substrate, 1536-well (AID 1445); parameters: species or system Plasmodium falciparum 3D7, 3D7
T4 sequence (O96935 whole entry): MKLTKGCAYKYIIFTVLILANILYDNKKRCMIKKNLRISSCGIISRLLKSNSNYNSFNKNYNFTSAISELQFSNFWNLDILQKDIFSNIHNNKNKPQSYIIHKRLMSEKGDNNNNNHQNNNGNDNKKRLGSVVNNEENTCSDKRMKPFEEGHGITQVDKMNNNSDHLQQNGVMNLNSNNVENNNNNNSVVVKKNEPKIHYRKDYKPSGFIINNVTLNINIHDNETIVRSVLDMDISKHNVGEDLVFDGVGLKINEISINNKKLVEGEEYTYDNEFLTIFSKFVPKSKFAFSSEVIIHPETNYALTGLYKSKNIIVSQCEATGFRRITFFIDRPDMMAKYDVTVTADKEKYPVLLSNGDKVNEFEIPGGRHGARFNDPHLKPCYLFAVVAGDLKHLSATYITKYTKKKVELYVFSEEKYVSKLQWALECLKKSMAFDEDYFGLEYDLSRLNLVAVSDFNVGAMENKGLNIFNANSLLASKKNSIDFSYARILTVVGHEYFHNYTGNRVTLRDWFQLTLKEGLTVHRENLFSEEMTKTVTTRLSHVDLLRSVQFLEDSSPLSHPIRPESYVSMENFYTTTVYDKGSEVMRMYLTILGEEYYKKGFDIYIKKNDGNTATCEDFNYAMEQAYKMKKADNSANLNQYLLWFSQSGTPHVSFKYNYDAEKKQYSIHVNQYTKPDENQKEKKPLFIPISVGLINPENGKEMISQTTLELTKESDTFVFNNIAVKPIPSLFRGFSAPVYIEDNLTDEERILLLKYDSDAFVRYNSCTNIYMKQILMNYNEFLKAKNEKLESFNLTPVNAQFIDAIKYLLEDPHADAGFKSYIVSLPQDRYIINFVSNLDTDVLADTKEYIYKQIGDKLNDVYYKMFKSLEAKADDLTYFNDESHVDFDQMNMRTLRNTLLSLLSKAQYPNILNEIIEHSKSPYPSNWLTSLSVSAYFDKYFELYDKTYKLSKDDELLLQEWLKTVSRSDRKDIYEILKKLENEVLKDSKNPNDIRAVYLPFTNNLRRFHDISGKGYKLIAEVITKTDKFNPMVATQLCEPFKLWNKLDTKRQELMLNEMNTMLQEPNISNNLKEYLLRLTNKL

[10] = Luminescence Cell-Based Dose Response HTS to Identify Activators of Luciferase Translation or Activity in H4 […] Cells. [Related pubchem assays: 1829 (Project Summary), 1814 (Primary HTS)]; format: functional
[11] = Luminescence Cell-Based Dose Confirmation HTS to Identify Activators of 5'UTR Stem-Loop Driven Alpha-Synuclein mRNA Translation in H4 Neuroglioblastoma Cells. [Related pubchem assays: 1829 (Project Summary), 1814 (Primary HTS)]; format: functional
[12] = enhancers of respiration in Yfh1-depleted yeast, dose response, Friedreich's ataxia, plus single-dose screen (AID 1465); format: functional;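 further: yeast depleted of Yfh1p frataxin homolog grown on glycerol needing respiration; WST-1 tetrazolium dye reduction as measure of cellular dehydrogenase metabolic activity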
[13] = biological target: Glucose-6-phosphate 1-dehydrogenase (Homo sapiens, UniProt P11413); experiment: human G6PD enzyme inhibitors, dose response, selectivity assay for P. falciparum G6PD inhibitor project, biochemical, fluorescence (AID 504792); format: functional
Sequence of Glucose-6-phosphate 1-dehydrogenase (P11413 whole entry): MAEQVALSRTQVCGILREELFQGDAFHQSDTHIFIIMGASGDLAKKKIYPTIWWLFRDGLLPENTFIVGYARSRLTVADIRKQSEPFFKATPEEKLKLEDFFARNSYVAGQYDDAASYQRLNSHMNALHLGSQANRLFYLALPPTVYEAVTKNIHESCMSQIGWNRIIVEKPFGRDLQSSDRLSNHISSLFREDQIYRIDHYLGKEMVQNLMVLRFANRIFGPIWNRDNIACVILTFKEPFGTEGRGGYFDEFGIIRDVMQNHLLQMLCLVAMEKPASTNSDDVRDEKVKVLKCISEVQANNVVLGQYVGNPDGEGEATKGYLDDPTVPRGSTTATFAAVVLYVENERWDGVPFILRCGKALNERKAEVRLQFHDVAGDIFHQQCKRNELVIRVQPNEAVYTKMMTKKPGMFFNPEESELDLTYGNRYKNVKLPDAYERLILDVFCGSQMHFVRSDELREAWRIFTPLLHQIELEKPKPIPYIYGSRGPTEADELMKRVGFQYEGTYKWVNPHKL

[14] = biological target: DNA topoisomerase (Yersinia pestis, UniProt A0A2S9PM60); experiment: Y. pestis Topo-I inhibitors, cleavage product readout, dose response, biochemical, cherry-pick (AID 588525)
Sequence of DNA topoisomerase (A0A2S9PM60 whole entry): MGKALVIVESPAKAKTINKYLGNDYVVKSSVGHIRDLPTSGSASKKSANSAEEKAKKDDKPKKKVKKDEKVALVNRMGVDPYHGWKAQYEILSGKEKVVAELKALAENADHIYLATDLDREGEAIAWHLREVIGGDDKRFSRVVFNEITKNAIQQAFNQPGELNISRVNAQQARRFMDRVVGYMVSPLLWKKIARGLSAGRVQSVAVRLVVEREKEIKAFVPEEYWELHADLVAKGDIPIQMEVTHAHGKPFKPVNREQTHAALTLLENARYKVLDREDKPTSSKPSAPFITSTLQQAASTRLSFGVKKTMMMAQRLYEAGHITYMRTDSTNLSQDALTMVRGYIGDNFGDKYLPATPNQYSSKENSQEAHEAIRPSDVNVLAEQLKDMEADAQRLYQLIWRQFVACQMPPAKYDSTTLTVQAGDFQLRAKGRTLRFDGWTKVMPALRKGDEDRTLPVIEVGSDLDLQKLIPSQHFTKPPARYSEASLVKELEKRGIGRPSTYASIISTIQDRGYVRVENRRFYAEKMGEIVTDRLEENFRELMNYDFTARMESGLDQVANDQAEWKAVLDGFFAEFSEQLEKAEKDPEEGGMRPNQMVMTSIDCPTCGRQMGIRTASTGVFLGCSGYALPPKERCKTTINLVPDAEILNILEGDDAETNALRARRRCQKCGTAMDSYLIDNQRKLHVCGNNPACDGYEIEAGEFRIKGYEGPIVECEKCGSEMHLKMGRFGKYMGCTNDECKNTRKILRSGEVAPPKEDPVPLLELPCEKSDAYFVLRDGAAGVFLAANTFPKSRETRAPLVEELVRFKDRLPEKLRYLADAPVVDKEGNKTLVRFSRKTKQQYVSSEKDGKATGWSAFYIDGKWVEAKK

[15] = biological target: T5, Streptokinase A (Streptococcus pyogenes serotype M1, UniProt P10520); experiment: S. pyogenes streptokinase expression inhibitors, potency, dose response, plasminogen activation absorbance, OD405 (AID 1914); format: functional, Streptococcus pyogenes M1 GAS;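 further: secreted streptokinase activity via plasminogen activation per viability signal from cell pellet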
T5 sequence (P10520 whole entry): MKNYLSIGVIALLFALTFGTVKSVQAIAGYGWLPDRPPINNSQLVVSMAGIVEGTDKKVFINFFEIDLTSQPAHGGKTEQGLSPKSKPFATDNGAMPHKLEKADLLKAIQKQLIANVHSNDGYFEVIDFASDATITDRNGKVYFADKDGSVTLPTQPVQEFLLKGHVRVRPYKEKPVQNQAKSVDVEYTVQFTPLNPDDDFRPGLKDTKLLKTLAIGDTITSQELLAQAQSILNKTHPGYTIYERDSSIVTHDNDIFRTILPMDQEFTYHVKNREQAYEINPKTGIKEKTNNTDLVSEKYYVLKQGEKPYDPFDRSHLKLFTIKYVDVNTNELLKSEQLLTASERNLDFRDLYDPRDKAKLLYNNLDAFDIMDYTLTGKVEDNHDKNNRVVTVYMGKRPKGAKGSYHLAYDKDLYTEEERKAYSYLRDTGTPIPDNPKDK

[16] = system: Streptococcus sp. 'group A'; experiment: growth inhibition of control SK(-) GAS strain, dose response, counter-screen for streptokinase expression inhibitor project, luminescence, kanamycin, BacTiterGlo, confirmation (AID 1900); format: functional, organism-based
[17] = system: Streptococcus; experiment: Group A Streptococcus viability loss, dose response, counter-screen for streptokinase expression inhibitor project, luminescence, BacTiterGlo (AID 1915); format: functional, organism-based;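 further: potency for reduction of bacterial viability or growth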
[18] = biological target: NS3 (Hepatitis C virus, UniProt A3EZJ3); experiment: PubChem AID 2173; parameters: species or system Hepacivirus hominis
Sequence of NS3 (A3EZJ3 whole entry): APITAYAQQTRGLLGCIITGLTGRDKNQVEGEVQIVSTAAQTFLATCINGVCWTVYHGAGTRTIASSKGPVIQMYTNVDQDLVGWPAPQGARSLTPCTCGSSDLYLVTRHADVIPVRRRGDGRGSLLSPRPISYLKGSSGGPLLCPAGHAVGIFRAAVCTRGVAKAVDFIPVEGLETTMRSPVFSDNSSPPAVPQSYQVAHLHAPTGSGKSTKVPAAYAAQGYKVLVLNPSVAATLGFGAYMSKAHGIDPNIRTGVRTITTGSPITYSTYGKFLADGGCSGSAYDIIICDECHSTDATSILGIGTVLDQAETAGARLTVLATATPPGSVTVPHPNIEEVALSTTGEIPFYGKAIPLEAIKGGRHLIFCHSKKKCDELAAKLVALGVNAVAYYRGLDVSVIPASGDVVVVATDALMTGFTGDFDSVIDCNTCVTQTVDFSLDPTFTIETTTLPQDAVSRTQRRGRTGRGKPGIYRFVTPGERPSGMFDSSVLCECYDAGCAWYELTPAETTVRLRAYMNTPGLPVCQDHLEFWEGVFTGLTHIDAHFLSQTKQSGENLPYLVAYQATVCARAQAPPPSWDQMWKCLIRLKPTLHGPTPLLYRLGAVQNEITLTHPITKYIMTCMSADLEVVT

Sequence of Genome polyprotein (P29990 2492-3391 limits assumed): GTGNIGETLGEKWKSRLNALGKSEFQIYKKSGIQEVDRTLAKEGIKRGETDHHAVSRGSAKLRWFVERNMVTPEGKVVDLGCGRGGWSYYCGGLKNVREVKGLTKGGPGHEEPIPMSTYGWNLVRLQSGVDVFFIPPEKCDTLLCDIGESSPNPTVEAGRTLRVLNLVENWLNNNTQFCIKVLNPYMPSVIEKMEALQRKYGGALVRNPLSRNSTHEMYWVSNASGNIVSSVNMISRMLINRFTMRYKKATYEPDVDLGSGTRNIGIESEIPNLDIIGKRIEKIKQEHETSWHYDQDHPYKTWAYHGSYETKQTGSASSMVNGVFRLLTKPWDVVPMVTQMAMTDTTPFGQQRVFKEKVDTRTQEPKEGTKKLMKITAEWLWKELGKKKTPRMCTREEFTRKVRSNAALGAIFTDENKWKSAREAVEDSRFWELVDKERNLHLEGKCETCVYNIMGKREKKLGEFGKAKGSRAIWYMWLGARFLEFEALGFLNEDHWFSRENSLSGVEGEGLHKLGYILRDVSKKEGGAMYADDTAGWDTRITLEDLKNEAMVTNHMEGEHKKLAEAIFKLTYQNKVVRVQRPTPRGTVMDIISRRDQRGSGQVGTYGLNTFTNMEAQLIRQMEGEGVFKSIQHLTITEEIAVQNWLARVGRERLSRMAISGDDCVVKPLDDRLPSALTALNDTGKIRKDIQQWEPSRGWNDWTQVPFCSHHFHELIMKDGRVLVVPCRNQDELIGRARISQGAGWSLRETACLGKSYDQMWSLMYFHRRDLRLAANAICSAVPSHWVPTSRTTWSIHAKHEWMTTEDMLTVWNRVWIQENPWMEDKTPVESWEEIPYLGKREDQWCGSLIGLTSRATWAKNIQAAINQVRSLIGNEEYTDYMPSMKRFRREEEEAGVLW

Compound	IC50 [1]	CC50 [2]	IC50 [3]	EC50 [4]	IC50 [5]	EC50 [6]	IC50 [7]	AC50 [8]	IC50 [9]	EC50 [10]	EC50 [11]	EC50 [12]	IC50 [13]	AC50 [14]	EC50 [15]	EC50 [16]	EC50 [17]	IC50 [18]
Cc1ccc(S(=O)(=O)/N=C2/C=C(C3C(=O)CC(C)(C)CC3=O)C(=O)c3ccccc32)cc1	10.1 µM (active)	> 40 µM (active)	> 66 µM (inactive)	3.22 µM (active)	2.13 µM (active)	46.4 µM (active)	> 66 µM (inactive)	113 µM (active)	34.5 µM (active)	42.1 µM (active)	8.21 µM (active)	> 100 µM (active)	> 80 µM (inactive)	–	–	–	–	–
Cc1ccc(C2C(C(=O)c3cc4ccccc4o3)=C(O)C(=O)N2c2cc(C)on2)cc1 (stereo not drawn)	–	–	–	–	–	–	–	–	–	–	–	–	–	8.86 µM (active)	6.3 µM (active)	2.28 µM (active)	6.76 µM (active)	2.49 µM (active)
